In patent publication US10597388B2, “Pyridazinone herbicides” (FMC CORPORATION, priority 2014, dated 2020):

Key:
Test in all cases: Test D controlled growth environment herbicide test, pre- and postemergence
Type in all cases: in vivo
[1] = tested on: Russian thistle (Salsola kali)
Method in brief: (§1)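 Species sown in silt loam and sprayed preemergence, or grown in peat-based medium to 2–18 cm (1- to 4-leaf stage) and sprayed postemergence, with compounds in non-phytotoxic solvent plus surfactant. Visual injury scored versus controls after 14–21 d in a controlled environment, 0 (no effect) to 100 (complete control).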

[2] = tested on: bluegrass (annual bluegrass, Poa annua)
Method in brief: as §1

[3] = tested on: bromegrass, downy (downy bromegrass, Bromus tectorum)
Method in brief: as §1

[4] = tested on: buckwheat, wild (wild buckwheat, Polygonum convolvulus)
Method in brief: as §1

[5] = tested on: canarygrass (Phalaris minor)
Method in brief: as §1

[6] = tested on: chamomile (scentless chamomile, Matricaria inodora)
Method in brief: as §1

[7] = tested on: field poppy (Papaver rhoeas)
Method in brief: as §1

[8] = tested on: field violet (Viola arvensis)
Method in brief: as §1

[9] = tested on: mustard, wild (wild mustard, Sinapis arvensis)
Method in brief: as §1

[10] = tested on: oat, wild (wild oat, Avena fatua)
Method in brief: as §1

[11] = tested on: oilseed rape (Brassica napus)
Method in brief: as §1

[12] = tested on: radish, wild (wild radish, Raphanus raphanistrum)
Method in brief: as §1

[13] = tested on: wheat, spring (spring wheat, Triticum aestivum)
Method in brief: as §1

[14] = Postemergence, 31 g ai/ha, scale 0 to 100 (0 no effect, 100 complete control)
[15] = Postemergence, 125 g ai/ha, visual rating on scale 0 (no effect) to 100 (complete control), 14 to 21 d
[16] = Postemergence, 250 g ai/ha, scale 0 to 100 (0 no effect, 100 complete control)
[17] = Preemergence, 125 g ai/ha, scale 0 to 100 (0 no effect, 100 complete control)
[18] = Preemergence, 250 g ai/ha, scale 0 to 100 (0 no effect, 100 complete control)
[19] = postemergence, 62 g ai/ha, scale 0 to 100, 0 no effect, 100 complete control
[20] = Preemergence, 62 g ai/ha, scale 0 to 100 (0 no effect, 100 complete control)

## Cc1nn(C)c(=O)c(-c2c(C)sc3ccc(Cl)cc23)c1O [Compound 104]
[1]; [14]
  Russian Thistle plant response rating: 55
[1]; [15]
  Plant response rating, Russian Thistle: 65
[1]; [16]
  Plant response rating, Russian Thistle: 85
[1]; Preemergence, 31 g ai/ha
  Plant response rating (scale of 0 to 100), Russian Thistle: 0
[1]; Preemergence, 62 g ai/ha
  Plant response rating (scale of 0 to 100), Russian Thistle: 10
[1]; [17]
  Plant response rating, Russian Thistle: 55
[1]; [18]
  Plant response rating, Russian Thistle: 75
[1]; [19]
  Plant response rating, Russian Thistle: 60
[2]; [14]
  Bluegrass plant response rating: 10
[2]; [15]
  Plant response rating, Bluegrass: 20
[2]; [16]
  Plant response rating, Bluegrass: 30
[2]; Preemergence, 31 g ai/ha
  Plant response rating (scale of 0 to 100), Bluegrass: 35
[2]; [20]
  Plant response rating, Bluegrass: 35
[2]; [17]
  Plant response rating, Bluegrass: 70
[2]; [18]
  Plant response rating, Bluegrass: 75
[2]; [19]
  Plant response rating, Bluegrass: 10
[3]; [14]
  Bromegrass, Downy plant response rating: 20
[3]; [15]
  Plant response rating, Bromegrass, Downy: 55
[3]; [16]
  Plant response rating, Bromegrass, Downy: 65
[3]; Preemergence, 31 g ai/ha
  Plant response rating (scale of 0 to 100), Bromegrass, Downy: 0
[3]; [20]
  Plant response rating, Bromegrass, Downy: 65
[3]; [17]
  Plant response rating, Bromegrass, Downy: 65
[3]; [18]
  Plant response rating, Bromegrass, Downy: 85
[3]; [19]
  Plant response rating, Bromegrass, Downy: 30
[4]; [14]
  Buckwheat, Wild plant response rating: 90
[4]; [15]
  Plant response rating, Buckwheat, Wild: 100
[4]; [16]
  Plant response rating, Buckwheat, Wild: 100
[4]; Preemergence, 31 g ai/ha
  Plant response rating (scale of 0 to 100), Buckwheat, Wild: 0
[4]; [20]
  Plant response rating, Buckwheat, Wild: 60
[4]; [17]
  Plant response rating, Buckwheat, Wild: 55
[4]; [18]
  Plant response rating, Buckwheat, Wild: 95
[4]; [19]
  Plant response rating, Buckwheat, Wild: 95
[5]; [14]
  Canarygrass plant response rating: 45
[5]; [15]
  Plant response rating, Canarygrass: 80
[5]; [16]
  Plant response rating, Canarygrass: 85
[5]; Preemergence, 31 g ai/ha
  Plant response rating (scale of 0 to 100), Canarygrass: 65
[5]; Preemergence, 62 g ai/ha
  Plant response rating (scale of 0 to 100), Canarygrass: 85
[5]; [17]
  Plant response rating, Canarygrass: 95
[5]; [18]
  Plant response rating, Canarygrass: 100
[5]; [19]
  Plant response rating, Canarygrass: 65
[6]; [14]
  Chamomile plant response rating: 80
[6]; [15]
  Plant response rating, Chamomile: 95
[6]; [16]
  Plant response rating, Chamomile: 100
[6]; [19]
  Plant response rating, Chamomile: 85
[7]; [14]
  Field Poppy plant response rating: 15
[7]; [15]
  Plant response rating, Field Poppy: 75
[7]; [16]
  Plant response rating, Field Poppy: 80
[7]; Preemergence, 31 g ai/ha
  Plant response rating (scale of 0 to 100), Field Poppy: 0
[7]; Preemergence, 62 g ai/ha
  Plant response rating (scale of 0 to 100), Field Poppy: 100
[7]; [17]
  Plant response rating, Field Poppy: 100
[7]; [18]
  Plant response rating, Field Poppy: 100
[7]; [19]
  Plant response rating, Field Poppy: 65
[8]; [14]
  Field Violet plant response rating: 85
[8]; [15]
  Plant response rating, Field Violet: 95
[8]; [16]
  Plant response rating, Field Violet: 98
[8]; Preemergence, 31 g ai/ha
  Plant response rating (scale of 0 to 100), Field Violet: 100
[8]; Preemergence, 62 g ai/ha
  Plant response rating (scale of 0 to 100), Field Violet: 100
[8]; [17]
  Plant response rating, Field Violet: 95
[8]; [18]
  Plant response rating, Field Violet: 100
[8]; [19]
  Plant response rating, Field Violet: 90
[9]; [14]
  Mustard, Wild plant response rating: 70
[9]; [15]
  Plant response rating, Mustard, Wild: 85
[9]; [16]
  Plant response rating, Mustard, Wild: 90
[9]; Preemergence, 31 g ai/ha
  Plant response rating (scale of 0 to 100), Mustard, Wild: 10
[9]; Preemergence, 62 g ai/ha
  Plant response rating (scale of 0 to 100), Mustard, Wild: 70
[9]; [17]
  Plant response rating, Mustard, Wild: 75
[9]; [18]
  Plant response rating, Mustard, Wild: 95
[9]; [19]
  Plant response rating, Mustard, Wild: 75
[10]; [14]
  Oat, Wild plant response rating: 85
[10]; [15]
  Plant response rating, Oat, Wild: 95
[10]; [16]
  Plant response rating, Oat, Wild: 100
[10]; Preemergence, 31 g ai/ha
  Plant response rating (scale of 0 to 100), Oat, Wild: 75
[10]; Preemergence, 62 g ai/ha
  Plant response rating (scale of 0 to 100), Oat, Wild: 80
[10]; [17]
  Plant response rating, Oat, Wild: 80
[10]; [18]
  Plant response rating, Oat, Wild: 100
[10]; [19]
  Plant response rating, Oat, Wild: 90
[11]; [14]
  Oilseed Rape plant response rating: 70
[11]; [15]
  Plant response rating, Oilseed Rape: 90
[11]; [16]
  Plant response rating, Oilseed Rape: 95
[11]; Preemergence, 31 g ai/ha
  Plant response rating (scale of 0 to 100), Oilseed Rape: 15
[11]; Preemergence, 62 g ai/ha
  Plant response rating (scale of 0 to 100), Oilseed Rape: 20
[11]; [17]
  Plant response rating, Oilseed Rape: 55
[11]; [18]
  Plant response rating, Oilseed Rape: 55
[11]; [19]
  Plant response rating, Oilseed Rape: 75
[12]; [14]
  Radish, Wild plant response rating: 70
[12]; [15]
  Plant response rating, Radish, Wild: 90
[12]; [16]
  Plant response rating, Radish, Wild: 95
[12]; Preemergence, 31 g ai/ha
  Plant response rating (scale of 0 to 100), Radish, Wild: 95
[12]; Preemergence, 62 g ai/ha
  Plant response rating (scale of 0 to 100), Radish, Wild: 100
[12]; [17]
  Plant response rating, Radish, Wild: 95
[12]; [18]
  Plant response rating, Radish, Wild: 100
[12]; [19]
  Plant response rating, Radish, Wild: 75
[13]; [14]
  Wheat, Spring plant response rating: 10
[13]; [15]
  Plant response rating, Wheat, Spring: 20
[13]; [16]
  Plant response rating, Wheat, Spring: 30
[13]; Preemergence, 31 g ai/ha
  Plant response rating (scale of 0 to 100), Wheat, Spring: 0
[13]; Preemergence, 62 g ai/ha
  Plant response rating (scale of 0 to 100), Wheat, Spring: 15
[13]; [17]
  Plant response rating, Wheat, Spring: 35
[13]; [18]
  Plant response rating, Wheat, Spring: 45
[13]; [19]
  Plant response rating, Wheat, Spring: 15
